# Legend:
# Ephrin type-A receptor 7 = Ephrin type-A receptor 7 (Mus musculus, UniProt Q61772); test: Displacement of biotinylated Fc-tagged ephrin-A1 from recombinant N/C-terminal 6-his tagged mouse EphA7 (Ala30 to Pro549 residues) preincubated for 1 hr followed by ephrin-A1-Fc addition and measured after 4 to 5 hrs by ELISA assay
# Ephrin type-A receptor 4 = Ephrin type-A receptor 4 (Mus musculus, UniProt Q03137); test: Displacement of biotinylated Fc-tagged ephrin-A1 from recombinant N/C-terminal 6-his tagged mouse EphA4 (Val20 to Thr547 residues) preincubated for 1 hr followed by ephrin-A1-Fc addition and measured after 4 to 5 hrs by ELISA assay
# Chain of Ephrin type-A receptor 4 (Q03137 whole entry): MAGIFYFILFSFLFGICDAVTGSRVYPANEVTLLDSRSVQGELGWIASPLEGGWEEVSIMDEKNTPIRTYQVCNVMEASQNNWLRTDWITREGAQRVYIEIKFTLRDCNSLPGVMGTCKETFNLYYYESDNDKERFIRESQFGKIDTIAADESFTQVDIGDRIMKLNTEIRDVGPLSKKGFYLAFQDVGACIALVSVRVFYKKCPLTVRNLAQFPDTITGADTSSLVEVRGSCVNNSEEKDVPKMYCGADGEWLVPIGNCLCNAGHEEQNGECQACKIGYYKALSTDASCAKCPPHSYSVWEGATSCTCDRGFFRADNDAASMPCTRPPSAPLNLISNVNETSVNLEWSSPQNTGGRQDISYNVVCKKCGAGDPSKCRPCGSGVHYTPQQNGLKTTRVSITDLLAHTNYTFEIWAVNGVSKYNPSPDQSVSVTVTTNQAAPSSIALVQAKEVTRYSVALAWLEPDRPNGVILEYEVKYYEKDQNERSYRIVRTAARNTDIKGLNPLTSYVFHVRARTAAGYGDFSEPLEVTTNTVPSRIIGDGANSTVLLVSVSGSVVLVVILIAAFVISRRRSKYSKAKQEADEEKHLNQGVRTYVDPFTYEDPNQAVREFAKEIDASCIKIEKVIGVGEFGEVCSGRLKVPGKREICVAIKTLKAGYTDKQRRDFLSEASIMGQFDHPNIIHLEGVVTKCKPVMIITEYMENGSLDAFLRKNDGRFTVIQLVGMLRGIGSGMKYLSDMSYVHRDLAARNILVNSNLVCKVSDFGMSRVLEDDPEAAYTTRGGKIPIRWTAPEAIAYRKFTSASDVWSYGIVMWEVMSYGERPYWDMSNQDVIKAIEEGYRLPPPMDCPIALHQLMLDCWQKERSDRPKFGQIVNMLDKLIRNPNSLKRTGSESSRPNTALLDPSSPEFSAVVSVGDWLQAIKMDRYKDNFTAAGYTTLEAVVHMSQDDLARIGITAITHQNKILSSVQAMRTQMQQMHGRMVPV
# Ephrin type-A receptor 3 = target: T1, Ephrin type-A receptor 3 (Mus musculus, UniProt P29319); test: Displacement of biotinylated Fc-tagged ephrin-A1 from recombinant N/C-terminal 6-his tagged mouse EphA3 (Glu21 to His541 residues) preincubated for 1 hr followed by ephrin-A1-Fc addition and measured after 4 to 5 hrs by ELISA assay
# T1 sequence (P29319 whole entry): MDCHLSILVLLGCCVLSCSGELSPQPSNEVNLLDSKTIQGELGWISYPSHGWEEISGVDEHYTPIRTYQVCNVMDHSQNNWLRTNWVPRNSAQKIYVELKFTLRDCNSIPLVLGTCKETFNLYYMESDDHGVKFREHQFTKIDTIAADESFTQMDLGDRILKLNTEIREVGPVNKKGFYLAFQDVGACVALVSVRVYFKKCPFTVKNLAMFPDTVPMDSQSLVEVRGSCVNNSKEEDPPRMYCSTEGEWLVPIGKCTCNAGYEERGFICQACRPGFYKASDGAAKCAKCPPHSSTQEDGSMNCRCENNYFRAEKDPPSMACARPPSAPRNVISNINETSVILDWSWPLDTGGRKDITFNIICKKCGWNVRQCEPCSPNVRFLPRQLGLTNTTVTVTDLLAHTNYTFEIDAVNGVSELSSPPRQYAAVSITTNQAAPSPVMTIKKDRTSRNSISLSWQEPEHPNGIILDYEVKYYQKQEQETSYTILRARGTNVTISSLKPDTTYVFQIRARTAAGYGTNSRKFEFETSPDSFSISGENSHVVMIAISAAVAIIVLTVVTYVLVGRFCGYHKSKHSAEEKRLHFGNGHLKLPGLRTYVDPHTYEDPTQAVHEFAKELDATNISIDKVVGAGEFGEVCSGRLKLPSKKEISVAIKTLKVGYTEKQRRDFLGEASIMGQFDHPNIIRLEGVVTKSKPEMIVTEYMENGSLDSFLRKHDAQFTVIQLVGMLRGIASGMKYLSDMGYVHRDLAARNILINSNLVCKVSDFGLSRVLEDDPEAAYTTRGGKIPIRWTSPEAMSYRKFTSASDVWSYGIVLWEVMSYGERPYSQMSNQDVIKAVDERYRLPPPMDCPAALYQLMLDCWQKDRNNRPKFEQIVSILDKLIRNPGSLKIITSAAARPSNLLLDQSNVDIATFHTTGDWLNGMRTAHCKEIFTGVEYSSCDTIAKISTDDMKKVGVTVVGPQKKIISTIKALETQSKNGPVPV
# Ephrin type-A receptor 8 = target: T2, Ephrin type-A receptor 8 (Mus musculus, UniProt O09127); test: Displacement of biotinylated Fc-tagged ephrin-A1 from recombinant N/C-terminal 6-his tagged mouse EphA8 (Gly27 to Arg540 residues) preincubated for 1 hr followed by ephrin-A1-Fc addition and measured after 4 to 5 hrs by ELISA assay
# T2 sequence (O09127 whole entry): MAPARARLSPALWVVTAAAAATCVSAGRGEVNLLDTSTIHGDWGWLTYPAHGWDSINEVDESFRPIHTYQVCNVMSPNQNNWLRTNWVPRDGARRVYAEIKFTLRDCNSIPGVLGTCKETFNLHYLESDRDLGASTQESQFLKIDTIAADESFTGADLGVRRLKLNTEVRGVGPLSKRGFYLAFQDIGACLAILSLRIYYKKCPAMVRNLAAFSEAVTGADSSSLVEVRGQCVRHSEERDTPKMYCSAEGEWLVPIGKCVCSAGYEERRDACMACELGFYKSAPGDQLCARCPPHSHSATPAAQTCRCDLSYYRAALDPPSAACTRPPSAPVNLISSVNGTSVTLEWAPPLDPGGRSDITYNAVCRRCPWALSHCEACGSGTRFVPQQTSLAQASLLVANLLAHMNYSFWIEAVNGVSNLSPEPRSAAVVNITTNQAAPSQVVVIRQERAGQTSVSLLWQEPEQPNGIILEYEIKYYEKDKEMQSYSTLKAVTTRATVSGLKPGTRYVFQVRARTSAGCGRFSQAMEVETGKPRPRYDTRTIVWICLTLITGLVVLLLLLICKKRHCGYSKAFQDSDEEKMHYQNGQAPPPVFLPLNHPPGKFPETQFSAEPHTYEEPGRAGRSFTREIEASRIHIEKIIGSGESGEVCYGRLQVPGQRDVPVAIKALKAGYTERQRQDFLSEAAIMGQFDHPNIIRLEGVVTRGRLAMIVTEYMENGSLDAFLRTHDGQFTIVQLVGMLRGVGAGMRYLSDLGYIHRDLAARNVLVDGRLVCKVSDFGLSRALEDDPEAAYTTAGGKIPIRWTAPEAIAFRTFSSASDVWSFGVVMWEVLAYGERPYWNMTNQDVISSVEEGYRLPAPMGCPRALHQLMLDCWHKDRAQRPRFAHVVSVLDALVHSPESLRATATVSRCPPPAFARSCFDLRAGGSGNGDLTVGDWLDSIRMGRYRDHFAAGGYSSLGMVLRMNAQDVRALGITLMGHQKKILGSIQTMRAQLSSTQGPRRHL
# Ephrin type-A receptor 5 = Ephrin type-A receptor 5 (Rattus norvegicus, UniProt P54757); test: Displacement of biotinylated Fc-tagged ephrin-A1 from recombinant N/C-terminal 6-his tagged rat EphA5 (Ser 58 to Gln573 residues) preincubated for 1 hr followed by ephrin-A1-Fc addition and measured after 4 to 5 hrs by ELISA assay
# Chain of Ephrin type-A receptor 5 (P54757 whole entry): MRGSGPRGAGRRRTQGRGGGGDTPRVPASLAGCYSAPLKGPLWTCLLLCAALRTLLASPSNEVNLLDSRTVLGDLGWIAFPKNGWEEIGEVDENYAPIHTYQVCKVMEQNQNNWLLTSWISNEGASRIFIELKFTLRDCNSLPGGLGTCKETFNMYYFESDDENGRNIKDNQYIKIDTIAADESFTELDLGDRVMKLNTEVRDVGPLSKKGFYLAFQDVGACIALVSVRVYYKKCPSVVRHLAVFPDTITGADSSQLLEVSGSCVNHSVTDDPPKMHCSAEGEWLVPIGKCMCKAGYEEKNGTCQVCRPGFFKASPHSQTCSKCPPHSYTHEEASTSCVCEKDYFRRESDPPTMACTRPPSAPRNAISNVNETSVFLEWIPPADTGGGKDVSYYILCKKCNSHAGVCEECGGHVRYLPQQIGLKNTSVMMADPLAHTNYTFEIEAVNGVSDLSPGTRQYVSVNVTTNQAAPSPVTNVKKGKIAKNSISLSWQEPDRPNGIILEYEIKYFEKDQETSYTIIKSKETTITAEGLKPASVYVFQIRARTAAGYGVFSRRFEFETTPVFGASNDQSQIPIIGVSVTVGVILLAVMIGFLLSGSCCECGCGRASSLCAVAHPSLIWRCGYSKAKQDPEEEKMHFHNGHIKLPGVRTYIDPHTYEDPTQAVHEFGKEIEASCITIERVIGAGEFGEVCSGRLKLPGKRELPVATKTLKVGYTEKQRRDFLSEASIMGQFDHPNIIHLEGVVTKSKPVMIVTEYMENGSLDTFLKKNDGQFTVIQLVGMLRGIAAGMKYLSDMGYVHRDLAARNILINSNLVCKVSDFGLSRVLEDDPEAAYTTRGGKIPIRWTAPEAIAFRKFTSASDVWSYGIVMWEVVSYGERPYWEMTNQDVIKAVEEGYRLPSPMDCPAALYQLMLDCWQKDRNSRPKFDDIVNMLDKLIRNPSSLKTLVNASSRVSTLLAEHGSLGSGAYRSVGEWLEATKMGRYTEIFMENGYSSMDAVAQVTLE
# Chain of Ephrin type-A receptor 7 (Q61772 whole entry): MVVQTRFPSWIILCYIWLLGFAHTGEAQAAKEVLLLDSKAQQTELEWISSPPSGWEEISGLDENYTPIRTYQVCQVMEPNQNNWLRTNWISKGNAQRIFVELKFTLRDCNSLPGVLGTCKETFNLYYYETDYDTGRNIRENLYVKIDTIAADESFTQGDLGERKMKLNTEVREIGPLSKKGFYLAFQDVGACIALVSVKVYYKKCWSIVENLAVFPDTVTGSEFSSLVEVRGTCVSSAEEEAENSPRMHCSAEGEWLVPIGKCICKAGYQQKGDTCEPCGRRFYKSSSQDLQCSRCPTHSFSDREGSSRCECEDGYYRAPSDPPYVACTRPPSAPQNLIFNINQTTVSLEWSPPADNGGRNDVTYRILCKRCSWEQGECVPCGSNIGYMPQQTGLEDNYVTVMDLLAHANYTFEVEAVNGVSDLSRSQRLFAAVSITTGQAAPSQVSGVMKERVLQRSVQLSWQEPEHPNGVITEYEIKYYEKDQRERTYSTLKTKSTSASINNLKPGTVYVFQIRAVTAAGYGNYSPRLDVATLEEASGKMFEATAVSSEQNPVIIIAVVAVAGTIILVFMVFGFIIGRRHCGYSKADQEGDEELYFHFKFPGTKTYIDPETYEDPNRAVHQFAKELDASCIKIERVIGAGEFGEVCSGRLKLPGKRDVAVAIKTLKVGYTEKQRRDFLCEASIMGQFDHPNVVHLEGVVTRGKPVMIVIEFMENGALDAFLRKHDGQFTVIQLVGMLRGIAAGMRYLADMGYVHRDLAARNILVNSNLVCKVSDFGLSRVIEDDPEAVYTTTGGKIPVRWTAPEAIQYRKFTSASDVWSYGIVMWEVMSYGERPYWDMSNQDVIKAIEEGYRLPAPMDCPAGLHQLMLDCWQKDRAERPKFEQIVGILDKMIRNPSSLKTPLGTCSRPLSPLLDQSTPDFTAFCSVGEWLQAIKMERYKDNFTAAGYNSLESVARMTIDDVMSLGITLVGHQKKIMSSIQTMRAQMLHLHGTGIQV
Structure (SMILES),IC50 (Ephrin type-A receptor 7),IC50 (Ephrin type-A receptor 4),IC50 (Ephrin type-A receptor 3),IC50 (Ephrin type-A receptor 8),IC50 (Ephrin type-A receptor 5)
C[C@H](CCC(=O)N[C@H](CC(=O)O)Cc1c[nH]c2ccccc12)[C@H]1CC[C@H]2[C@@H]3CC=C4C[C@@H](O)CC[C@]4(C)[C@H]3CC[C@]12C,4.5 µM,2.8 µM,4.1 µM,1.8 µM,3 µM
C[C@H](CCC(=O)N[C@H](CC(=O)O)Cc1cn(S(=O)(=O)c2ccc(C(F)(F)F)cc2)c2ccccc12)[C@H]1CC[C@H]2[C@@H]3CC=C4C[C@@H](O)CC[C@]4(C)[C@H]3CC[C@]12C,15 µM,4.2 µM,7.6 µM,13 µM,9.3 µM
C[C@H](CCC(=O)N[C@H](CC(=O)O)Cc1cn(S(=O)(=O)c2ccccc2)c2ccccc12)[C@H]1CC[C@H]2[C@@H]3CC=C4C[C@@H](O)CC[C@]4(C)[C@H]3CC[C@]12C,22 µM,6.3 µM,11 µM,5.5 µM,10 µM

# Reference: ChEMBL document CHEMBL5614382, “Discovery of a new 1-(phenylsulfonyl)-1H-indole derivative targeting the EphA2 receptor with antiproliferative activity on U251 glioblastoma cell line” (Eur J Med Chem, 2024)
